In patent US20250154105A1, “POLYCYCLIC COMPOUND AND USE THEREOF” (TYK MEDICINES, INC., priority 2021, published 2025):
pIC50: −log10 of the molar value.

What was measured:
YAP-TEAD = YAP-TEAD inhibitor activity by Nano luciferase method (8xGTiiC-nLuc reporter in 293T cells); assay type: cell-based; settings: Homo sapiens, HEK-293T, 48 hours incubation, read-out: Nano-luciferase detection (IC50)
In short: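 293T cells transiently transfected with pGL3B-8xGTiiC-nLuc-CMV-fLuc, seeded 2000 cells/well, then treated 48 h at 37 °C with compounds in 1:3.16 dilution series (top 10,000 nM). Nano luciferase signal read after cell lysis; IC50 from percent of 0 nM control.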

[1] = system: human pleural mesothelioma cells NCI-H226; assay: Cell anti-proliferation experiment (CCK8), NCI-H226; assay type: cell-based
In short: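 Viability was measured by CCK-8 (3 h, A450) after 3-day treatment with 0.15–333.33 nM compound in 0.1% DMSO medium. Curve-fitted IC50 was based on viability normalised to no-drug and cell-free controls.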

Structure (SMILES) | pIC50 (YAP-TEAD) | pIC50 [1]
Cc1occ2c(=O)n(-c3ccc(C(F)(F)F)cc3)c3ccc(C(=O)N[C@@H](C)c4ccccn4)cc3c12 [Example T-288] | ≥ 6.00 | ≥ 6.00
Cc1oc(C)c2c1c(=O)n(-c1ccc(C(F)(F)F)cc1)c1ccc(C(=O)N[C@@H](C)c3ccccn3)cc21 [Example T-289] | ≥ 6.00 | ≥ 6.00
C[C@H](NC(=O)c1ccc2c(c1)c1c(c(=O)n2-c2ccc(C(F)(F)F)cc2)CCC1F)c1ccccn1 (some centres unmarked) [Example T-290] | ≥ 6.00 | ≥ 6.00
C[C@H](NC(=O)c1ccc2c(c1)c1c(c(=O)n2-c2ccc(C(F)(F)F)cc2)C(F)CC1)c1ccccn1 (some centres unmarked) [Example T-292] | ≥ 6.00 | ≥ 6.00
C[C@H](NC(=O)c1ccc2c(c1)c1c(c(=O)n2-c2ccc(C(F)(F)F)cc2)CCC1(F)F)c1ccccn1 [Example T-293] | ≥ 6.00 | ≥ 6.00
C[C@H](NC(=O)c1ccc2c(c1)c1c(c(=O)n2-c2ccc(C(F)(F)F)cc2)CC(F)(F)C1)c1ccccn1 [Example T-294] | ≥ 6.00 | ≥ 6.00
Cc1scc2c(=O)n(-c3ccc(C(F)(F)F)cc3)c3ccc(C(=O)N[C@@H](C)c4ccccn4)cc3c12 [Example T-296] | ≥ 6.00 | ≥ 6.00
Cc1scc2c1c(=O)n(-c1ccc(C(F)(F)F)cc1)c1ccc(C(=O)N[C@@H](C)c3ccccn3)cc21 [Example T-297] | ≥ 6.00 | ≥ 6.00
C[C@H](NC(=O)c1ccc2c(c1)c1c(F)scc1c(=O)n2-c1ccc(C(F)(F)F)cc1)c1ccccn1 [Example T-298] | ≥ 6.00 | ≥ 6.00
C[C@H](NC(=O)c1ccc2c(c1)c1csc(F)c1c(=O)n2-c1ccc(C(F)(F)F)cc1)c1ccccn1 [Example T-299] | ≥ 6.00 | ≥ 6.00
C[C@H](NC(=O)c1ccc2c(c1)c1csc(Cl)c1c(=O)n2-c1ccc(C(F)(F)F)cc1)c1ccccn1 [Example T-300] | ≥ 6.00 | ≥ 6.00
C[C@H](NC(=O)c1ccc2c(c1)c1c(Cl)scc1c(=O)n2-c1ccc(C(F)(F)F)cc1)c1ccccn1 [Example T-301] | ≥ 6.00 | ≥ 6.00
C[C@H](NC(=O)c1ccc2c(c1)c1c(c(=O)n2-c2ccc(C(F)(F)F)cc2)CCC(F)(F)C1)c1ccccn1 [Example T-307] | ≥ 6.00 | ≥ 6.00
COc1ccc2c(=O)n(-c3ccc(C(F)(F)F)cc3)c3ccc(C(=O)N[C@@H](C)c4ccccn4)cc3c2c1 [Example T-315] | ≥ 6.00 | ≥ 6.00
C[C@H](NC(=O)c1ccc2c(c1)c1c(C#N)cccc1c(=O)n2-c1ccc(C(F)(F)F)cc1)c1ccccn1 [Example T-318] | ≥ 6.00 | ≥ 6.00
C[C@H](NC(=O)c1ccc2c(c1)c1cc(C#N)ccc1c(=O)n2-c1ccc(C(F)(F)F)cc1)c1ccccn1 [Example T-319] | ≥ 6.00 | ≥ 6.00

Structure (SMILES) | pIC50 (YAP-TEAD) | pIC50 [1]
C[C@H](NC(=O)c1ccc2c(c1)c1ccc(C#N)cc1c(=O)n2-c1ccc(C(F)(F)F)cc1)c1ccccn1 [Example T-320] | ≥ 6.00 | ≥ 6.00
C[C@H](NC(=O)c1ccc2c(c1)c1cccc(C#N)c1c(=O)n2-c1ccc(C(F)(F)F)cc1)c1ccccn1 [Example T-321] | ≥ 6.00 | ≥ 6.00
CNS(=O)(=O)c1ccc2c(c1)c1nn(C)cc1c(=O)n2-c1cc(F)cc(F)c1 [Example T-322] | ≥ 6.00 | ≥ 6.00
C=C1c2cn(C)nc2-c2cc(C(=O)N[C@@H](C)c3ccccn3)ccc2N1c1ccc(C(F)(F)F)cc1 [Example T-324] | ≥ 6.00 | ≥ 6.00
C[C@H](NC(=O)c1ccc2c(c1)-c1nn(C)cc1[C@H](C)N2c1ccc(C(F)(F)F)cc1)c1cccc(N)n1 [Example T-327] | ≥ 6.00 | ≥ 6.00
C[C@H](NC(=O)c1ccc2c(c1)c1scnc1c(=O)n2-c1ccc(C(F)(F)F)cc1)c1ccccn1 [Example T-331] | ≥ 6.00 | ≥ 6.00
C[C@H](NC(=O)c1ccc2c(c1)c1ncncc1c(=O)n2-c1ccc(C(F)(F)F)cc1)c1ccccn1 [Example T-332] | ≥ 6.00 | ≥ 6.00
C[C@H](NC(=O)c1ccc2c(c1)c1cncnc1c(=O)n2-c1ccc(C(F)(F)F)cc1)c1ccccn1 [Example T-333] | ≥ 6.00 | ≥ 6.00
Cc1occ2c(=O)n(-c3ccc(C(F)(F)F)cc3)c3ncc(C(=O)N[C@@H](C)c4ccccn4)cc3c12 [Example T-375] | ≥ 6.00 | ≥ 6.00
C[C@H](NC(=O)c1ccc2c(n1)c1cscc1c(=O)n2-c1ccc(C(F)(F)F)cc1)c1ccccn1 [Example T-384] | ≥ 6.00 | ≥ 6.00
Cc1scc2c(=O)n(-c3ccc(C(F)(F)F)cc3)c3ccc(C(=O)N[C@@H](C)c4ccccn4)nc3c12 [Example T-385] | ≥ 6.00 | ≥ 6.00
Cc1scc2c1c(=O)n(-c1ccc(C(F)(F)F)cc1)c1ccc(C(=O)N[C@@H](C)c3ccccn3)nc21 [Example T-386] | ≥ 6.00 | ≥ 6.00
C[C@H](NC(=O)c1ccc2c(n1)c1c(Cl)scc1c(=O)n2-c1ccc(C(F)(F)F)cc1)c1ccccn1 [Example T-387] | ≥ 6.00 | ≥ 6.00
C[C@H](NC(=O)c1ccc2c(n1)c1csc(Cl)c1c(=O)n2-c1ccc(C(F)(F)F)cc1)c1ccccn1 [Example T-388] | ≥ 6.00 | ≥ 6.00
C[C@H](NC(=O)c1ccc2c(c1)c1nocc1c(=O)n2-c1ccc(C(F)(F)F)cc1)c1ccccn1 [Example T-395] | ≥ 6.00 | ≥ 6.00
C[C@H](NC(=O)c1ccc2c(c1)c1ncoc1c(=O)n2-c1ccc(C(F)(F)F)cc1)c1ccccn1 [Example T-396] | ≥ 6.00 | ≥ 6.00

Continued, values first:

pIC50 (YAP-TEAD) | pIC50 [1] | Structure (SMILES)
≥ 6.00 | ≥ 6.00 | C[C@H](NC(=O)c1ccc2c(c1)c1c(c(=O)n2-c2ccc(C(F)(F)F)cc2)CN(C)C1)c1ccccn1 [Example T-287]
≥ 6.00 | ≥ 6.00 | C[C@H](NC(=O)c1ccc2c(c1)c1c(c(=O)n2-c2ccc(C(F)(F)F)cc2)CC(F)C1)c1ccccn1 (some centres unmarked) [Example T-291]
≥ 6.00 | ≥ 6.00 | C[C@H](NC(=O)c1ccc2c(c1)c1c(c(=O)n2-c2ccc(C(F)(F)F)cc2)C(F)(F)CC1)c1ccccn1 [Example T-295]
≥ 6.00 | ≥ 6.00 | C[C@H](NC(=O)c1ccc2c(c1)c1c(c(=O)n2-c2ccc(C(F)(F)F)cc2)CCCC1F)c1ccccn1 (some centres unmarked) [Example T-302]
≥ 6.00 | ≥ 6.00 | C[C@H](NC(=O)c1ccc2c(c1)c1c(c(=O)n2-c2ccc(C(F)(F)F)cc2)CCC(F)C1)c1ccccn1 (some centres unmarked) [Example T-303]
≥ 6.00 | ≥ 6.00 | C[C@H](NC(=O)c1ccc2c(c1)c1c(c(=O)n2-c2ccc(C(F)(F)F)cc2)CCCC1(F)F)c1ccccn1 [Example T-306]
≥ 6.00 | ≥ 6.00 | C[C@H](NC(=O)c1ccc2c(c1)c1cc(Cl)ccc1c(=O)n2-c1ccc(C(F)(F)F)cc1)c1ccccn1 [Example T-311]
≥ 6.00 | ≥ 6.00 | C[C@H](NC(=O)c1ccc2c(c1)-c1nn(C)cc1[C@@H](C)N2c1ccc(C(F)(F)F)cc1)c1ccccn1 [Example T-326]
≥ 6.00 | ≥ 6.00 | C[C@H](NC(=O)c1ccc2c(c1)c1csnc1c(=O)n2-c1ccc(C(F)(F)F)cc1)c1ccccn1 [Example T-328]
≥ 6.00 | ≥ 6.00 | C[C@H](NC(=O)c1ccc2c(c1)c1nscc1c(=O)n2-c1ccc(C(F)(F)F)cc1)c1ccccn1 [Example T-329]
≥ 6.00 | ≥ 6.00 | C[C@H](NC(=O)c1ccc2c(c1)c1ncsc1c(=O)n2-c1ccc(C(F)(F)F)cc1)c1ccccn1 [Example T-330]
≥ 6.00 | ≥ 6.00 | C[C@H](NC(=O)c1ccc2c(c1)c1nnccc1c(=O)n2-c1ccc(C(F)(F)F)cc1)c1ccccn1 [Example T-334]
≥ 6.00 | ≥ 6.00 | C[C@H](NC(=O)c1ccc2c(c1)c1cnncc1c(=O)n2-c1ccc(C(F)(F)F)cc1)c1ccccn1 [Example T-335]
≥ 6.00 | ≥ 6.00 | C[C@H](NC(=O)c1ccc2c(c1)c1ccnnc1c(=O)n2-c1ccc(C(F)(F)F)cc1)c1ccccn1 [Example T-336]
≥ 6.00 | ≥ 6.00 | C[C@H](NC(=O)c1ccc2c(c1)c1nccnc1c(=O)n2-c1ccc(C(F)(F)F)cc1)c1ccccn1 [Example T-337]
5.30 to 6.00 | 5.30 to 6.00 | Cc1scc2c(=O)n(-c3ccc(C(F)(F)F)cc3)c3ncc(C(=O)N[C@@H](C)c4ccccn4)cc3c12 [Example T-372]
5.30 to 6.00 | 5.30 to 6.00 | Cc1scc2c1c(=O)n(-c1ccc(C(F)(F)F)cc1)c1ncc(C(=O)N[C@@H](C)c3ccccn3)cc21 [Example T-373]
≥ 6.00 | ≥ 6.00 | C[C@H](NC(=O)c1cnc2c(c1)c1cocc1c(=O)n2-c1ccc(C(F)(F)F)cc1)c1ccccn1 [Example T-374]
≥ 6.00 | ≥ 6.00 | Cc1occ2c1c(=O)n(-c1ccc(C(F)(F)F)cc1)c1ncc(C(=O)N[C@@H](C)c3ccccn3)cc21 [Example T-376]
≥ 6.00 | ≥ 6.00 | C[C@H](NC(=O)c1cnc2c(c1)c1sccc1c(=O)n2-c1ccc(C(F)(F)F)cc1)c1ccccn1 [Example T-377]
≥ 6.00 | ≥ 6.00 | C[C@H](NC(=O)c1cnc2c(c1)c1ccsc1c(=O)n2-c1ccc(C(F)(F)F)cc1)c1ccccn1 [Example T-378]
≥ 6.00 | ≥ 6.00 | C[C@H](NC(=O)c1ccc2c(n1)c1cocc1c(=O)n2-c1ccc(C(F)(F)F)cc1)c1ccccn1 [Example T-389]
≥ 6.00 | ≥ 6.00 | C[C@H](NC(=O)c1ccc2c(c1)c1ocnc1c(=O)n2-c1ccc(C(F)(F)F)cc1)c1ccccn1 [Example T-391]
